From patent US20260042764A1, “COMPOSITIONS AND METHODS FOR INHIBITION OF KRAS” (TheRas, Inc., priority 2022, published 2026)

Legend:
[1] = test system: SW620 cells (KRAS G12V); test: Cell-based pERK HTRF assay in SW620 cell (Biological Example 4); details: Homo sapiens, SW-620, SW620 (KRAS G12V) cells, pERK HTRF
Procedure: A pERK assay (Perkin Elmer) was used to determine the effectiveness of compounds in disrupting KRAS G12V protein/effector signaling in cells.
On Day 1, cells (SW620) were seeded into 96-well plates at 3×10^4 cells/well in 80 μL complete growth media (RPMI, 10% FBS).
On Day 2, cells were treated with compounds at 0.25% DMSO. The source plate was created with compounds diluted in media at 5-fold the final assay concentration. The compounds were run in a 9-point concentration curve starting at 1 μM, with a half-log dilution between concentrations. Twenty μL was transferred onto the cell plates (final volume in wells was 100 μL). Plates were harvested after 4 h incubation by aspirating media and adding kit-supplied 1x supplemented lysis buffer to all wells (50 μL per well). Plates were then placed on a plate shaker and incubated at 850 rpm for an additional 30 min.
Antibody mixture solution was prepared by diluting aliquoted d2 and Eu Cryptate antibodies 1:20 in kit supplied detection buffer and mixing the diluted antibodies solutions (1:1 v:v).
Samples were homogenized by pipetting up and down and then transferred (16 μL of cell lysates) from the 96-well cell culture plate to two wells of the HTRF 384-well detection plate containing the antibody solution. Plates were centrifuged (524 g for Imin) and allowed to incubate between 4 and 24 h at room temperature. […] Plates were centrifuged again (524 g for 1 min), then analyzed on the En Vision plate reader using the following settings: Excitation 320 nm, Bandwidth 75 nm; Emission 615 nm, Bandwidth 85 nm; Gain 100%; Flashes 100; Lag 60 μs.

[2] = biological target: T1, Avi-KRAS WT (1-169) GppNHp/RAF1 RBD-3xFLAG (52-151) (Homo sapiens, UniProt P01116); test: Raf1-KRAS WT-GppNHP disruption HTRF assay (Biological Example 1); format: binding
T1 construct: Avi-KRAS WT (1-169)
How it was run: (§1)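 Compounds were tested for disruption of KRAS–RAF1 RBD binding by HTRF in 50 mM Tris pH 7.5, 100 mM NaCl, 5 mM MgCl2, 0.1% BSA, 0.01% Tween, 10% DMSO. Protein mix was incubated 1 h at room temperature with shaking, then detection reagents added for another 1 h. Activity expressed as percent of DMSO control.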

[3] = biological target: T2, Avi-KRAS G12R (1-169) GppNHp/RAF1 RBD-3xFLAG (52-151) (Homo sapiens, UniProt P01116, G12R); test: Raf1-KRAS G12R-GppNHP disruption HTRF assay (Biological Example 1); format: binding
T2 construct: Avi-KRAS G12R (1-169)
How it was run: as §1

[4] = biological target: T3, Avi-KRAS G12V (1-169) GppNHp/RAF1 RBD-3xFLAG (52-151) (Homo sapiens, UniProt P01116, G12V); test: Raf1-KRAS G12V-GppNHP disruption HTRF assay (Biological Example 1); format: binding
T3 construct: Avi-KRAS G12V (1-169)
How it was run: as §1

[5] = biological target: T4, Avi-KRAS G12D (1-169) GppNHp/RAF1 RBD-3xFLAG (52-151) (Homo sapiens, UniProt P01116, G12D); test: Raf1-KRAS G12D-GppNHP disruption HTRF assay (Biological Example 1); format: binding
T4 construct: Avi-KRAS G12D (1-169)
How it was run: as §1

[6] = test system: GP2d cells (KRAS G12D); test: Cell-based pERK HTRF assay in GP2d cell (Biological Example 2); details: GP2d, GP2d (KRAS G12D) cells, pERK HTRF
How it was run: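 Cells grown in DMEM with 10% FBS were exposed to compound for 60 min at 0.25% DMSO, using a 9-point half-log series starting at 1 μM or 100 nM. Lysates were then mixed with d2 and Eu cryptate antibodies for 4–24 h at room temperature, and pERK was read by HTRF.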

[7] = KRAS WT, GppNHp-loaded, class symbols
[8] = KRAS G12R, GppNHp-loaded, class symbols
[9] = KRAS G12V, GppNHp-loaded, class symbols
[10] = KRAS G12D, GppNHp-loaded, class symbols

T1 sequence (P01116 1-169 isoform P01116-2): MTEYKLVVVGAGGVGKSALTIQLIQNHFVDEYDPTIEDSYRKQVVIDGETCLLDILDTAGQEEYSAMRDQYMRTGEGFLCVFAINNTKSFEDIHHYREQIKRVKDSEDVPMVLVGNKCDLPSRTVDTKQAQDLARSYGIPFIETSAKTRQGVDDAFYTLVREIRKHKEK
T4 sequence (P01116 1-169 isoform P01116-2 G12D): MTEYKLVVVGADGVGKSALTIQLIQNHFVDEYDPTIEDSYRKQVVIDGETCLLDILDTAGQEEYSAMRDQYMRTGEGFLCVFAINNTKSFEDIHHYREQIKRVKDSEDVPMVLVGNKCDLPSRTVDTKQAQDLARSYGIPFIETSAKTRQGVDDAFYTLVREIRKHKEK
T3 sequence (P01116 1-169 isoform P01116-2 G12V): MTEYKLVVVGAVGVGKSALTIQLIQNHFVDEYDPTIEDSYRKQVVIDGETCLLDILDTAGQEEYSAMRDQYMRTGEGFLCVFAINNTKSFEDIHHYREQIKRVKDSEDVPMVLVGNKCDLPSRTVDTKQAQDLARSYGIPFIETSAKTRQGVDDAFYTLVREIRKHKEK
T2 sequence (P01116 1-169 isoform P01116-2 G12R): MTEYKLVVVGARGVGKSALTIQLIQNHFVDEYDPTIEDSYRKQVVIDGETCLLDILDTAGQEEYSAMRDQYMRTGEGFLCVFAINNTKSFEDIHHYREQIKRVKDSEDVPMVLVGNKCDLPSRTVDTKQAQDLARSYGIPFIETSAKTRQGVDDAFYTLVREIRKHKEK

Compound | IC50 [1] [nM] | IC50 ([2]; KRAS WT-GppNHp/RAF1 RBD HTRF) [nM] | IC50 ([3]; KRAS G12R-GppNHp/RAF1 RBD HTRF) [nM] | IC50 ([4]; KRAS G12V-GppNHp/RAF1 RBD HTRF) [nM] | IC50 ([5]; KRAS G12D-GppNHp/RAF1 RBD HTRF) [nM] | IC50 [6] [nM] | IC50 ([1]; class symbols) [nM] | IC50 [2, 7] [nM] | IC50 [3, 8] [nM] | IC50 [4, 9] [nM] | IC50 [5, 10] [nM] | IC50 ([6]; class symbols) [nM] | IC50 ([2]; KRAS WT, GppNHp-loaded, Table 11) [nM] | IC50 ([3]; KRAS G12R, GppNHp-loaded, Table 11) [nM] | IC50 ([4]; KRAS G12V, GppNHp-loaded, Table 11) [nM] | IC50 ([5]; KRAS G12D, GppNHp-loaded, Table 11) [nM]
[2H]C1([2H])CN2C[C@H](F)C[C@]2(COc2nc(N(C)[C@@H]3CCN(C(=O)C4CC4)[C@@H]3C)c3cc(C(F)(F)F)c(-c4ccc(F)c5sc(N)c(C#N)c45)c(F)c3n2)C1 [Compound 522] | < 100 | < 100 | < 100 | 100 to 1000 | 100 to 1000 | < 100 |  |  |  |  |  |  |  |  |  | 
CCN(c1nc(OC[C@@]23CCCN2C[C@H](F)C3)nc2c(F)c(-c3ccc(F)c4sc(N)c(C#N)c34)c(C(F)(F)F)cc12)[C@H]1C[C@@H]2CCOC(=O)N2C1 (atropisomer, axis not shown) [Compound 665] |  |  |  |  |  |  | < 100 | 100 to 1000 | 100 to 1000 | 100 to 1000 | 100 to 1000 | < 100 |  |  |  | 
C=C(F)C(=O)N1CC[C@@H](N(C)c2nc(OC[C@@]34CCCN3C[C@H](F)C4)nc3c(F)c(-c4ccc(F)c5sc(N)c(C#N)c45)c(C(F)(F)F)cc23)[C@H]1C [Compound 669] |  |  |  |  |  |  | < 100 | 100 to 1000 | 100 to 1000 | 100 to 1000 | 100 to 1000 | < 100 |  |  |  | 
CN(C)C(=O)N1CC[C@H]2[C@@H]1CN2c1nc(OC[C@@]23CCCN2C[C@H](F)C3)nc2c(F)c(-c3ccc(F)c4sc(N)c(C#N)c34)c(C(F)(F)F)cc12 (atropisomer, axis not shown) [Compound 728] |  |  |  |  |  |  | 100 to 1000 | 1000 to 10000 | 1000 to 10000 | 1000 to 10000 | 1000 to 10000 | 100 to 1000 |  |  |  | 
CN1CC(F)(F)C[C@H]1COc1nc(N2CC3CC(C2)O3)c2cc(C(F)(F)F)c(-c3ccc(F)c4sc(N)c(C#N)c34)c(F)c2n1 [Compound 498] | > 1000 | > 10000 | > 10000 | > 10000 | > 10000 | > 1000 |  |  |  |  |  |  |  |  |  | 
CCN1CC[C@H](N(CC)c2nc(OC[C@@]34CCCN3C[C@H](F)C4)nc3c(F)c(-c4ccc(F)c5sc(N)c(C#N)c45)c(C(F)(F)F)cc23)C1=O (atropisomer, axis not shown) [Compound 694] |  |  |  |  |  |  | < 100 | 100 to 1000 | 100 to 1000 | 100 to 1000 | < 100 | < 100 |  |  |  | 
[2H]C([2H])([2H])C([2H])(C(=O)N1CC[C@H](N(CC)c2nc(OC[C@@]34CCCN3C[C@H](F)C4)nc3c(F)c(-c4ccc(F)c5sc(N)c(C#N)c45)c(C(F)(F)F)cc23)C1)C([2H])([2H])[2H] (atropisomer, axis not shown) [Compound 707] |  |  |  |  |  |  | < 100 | < 100 | < 100 | < 100 | < 100 | < 100 |  |  |  | 
N#Cc1c(N)sc2c(F)ccc(-c3c(C(F)(F)F)cc4c(N5CCn6nc(C(=O)N7CC[C@H](O)C7)cc6C5)nc(OC[C@@]56CCCN5C[C@H](F)C6)nc4c3F)c12 [Compound 500] | 100 to 1000 | 100 to 1000 | 100 to 1000 | 100 to 1000 | 100 to 1000 | < 100 |  |  |  |  |  |  |  |  |  | 
CCC(=O)N1CC[C@@H]2[C@H]1CN2c1nc(OC[C@@]23CCCN2C[C@H](F)C3)nc2c(F)c(-c3ccc(F)c4sc(N)c(C#N)c34)c(C(F)(F)F)cc12 [Compound 515] | < 100 | 100 to 1000 | 100 to 1000 | 100 to 1000 | 100 to 1000 | < 100 |  |  |  |  |  |  |  |  |  | 
N#Cc1c(N)sc2c(F)ccc(-c3c(C(F)(F)F)cc4c(N5CCCCC5)nc(OC[C@@]56CCCN5C[C@H](F)C6)nc4c3F)c12 [Compound 203] | < 100 |  |  |  |  | < 100 |  |  |  |  |  |  | 100 to 1000 | 100 to 1000 | 1000 to 10000 | 100 to 1000
